The text below walks through data of patent US20260235593A1, “FRET BIOSENSOR RECOMBINANT PROTEINS” (The Regents of the University of California, priority 2023, published 2026).

Structures are written as SMILES.

What all share (format): cell-based
In assay [1] the test system is protein kinase A (PKA). The assay is described as follows: FRET-based AKAR imaging of PKA activity in HeLa cells upon Fsk/IBMX stimulation. From the text: In order to generate KARs that are both bright and photostable, we replaced one of the FPs in the prototypic FRET-based A kinase activity reporter AKAR4 with the self-labeling protein tag HaloTag, which can be flexibly labeled with synthetic fluorophores in different spectral regions. Here, we used a specific green-yellow HaloTag fluorophore (NGD, Table 1)^[12]. To identify the best FRET acceptor for HaloTag^(NGD), we selected a panel of 12 different RFPs with different excitation and emission properties. Given that the FRET efficiency depends not only on the distance between the donor and the acceptor fluorophore, but also on their relative orientation[^13], we tested two different domain orientations (HaloTag-RFP or RFP-HaloTag) and two different linker lengths (flexible linker with 14 amino acids or EV linker with 116 amino acids^[14], FIG. 1A). […] The 48 biosensors were transfected into HeLa cells, the HaloTag labeled with NGD, and the cells stimulated with 50 i.iM forskolin (Fsk) and 100 i.iM 3-isobutyl-1-methylxanthine (IBMX, FIG. 1B). […] We used NGD to label cpHaloTag and measured their response upon Fsk/IBMX stimulation. […] We overexpressed the reporters in HeLa cells and monitored changes in PKA activity after stimulation with 50 tM Fsk and 100 tM IBMX. […] We additionally quantified the on and off kinetics of the biosensor. […]

In assay [2] the target is T1, PKA (Homo sapiens, UniProt P17612).
T1 construct: endogenous in cells; host or cells: HEK293T; only the biosensors are transfected
Put plainly: Multiplexed biosensor imaging in HEK293T cells: PKA activity (red/far-red HaloTag-AKAR). The note with it: HEK293T cells co-expressing yellow/far-red HaloTag-EKAR and red/far-red HaloTag-AKAR; 100 ng/mL hEGF; Fsk and 100 μM IBMX together; M H89. The protocol:
(§1) Cell culture and transfection HeLa and HEK293T cells were cultured in Dulbecco's modified Eagle medium (DMEM; Gibco) containing glucose (1 g/L) and supplemented with 10% (v/v) fetal bovine serum (Sigma-Aldrich) and 1% (v/v) penicillin-streptomycin (Pen-Strep; Sigma-Aldrich). NIH3T3 cells were cultured in DMEM (Gibco) containing glucose (1 g/L) and supplemented with 10% (v/v) fetal calf serum and 1% (v/v) Pen-Strep (Sigma-Aldrich). All cells were maintained in a humidified incubator at 37° C. with a 5% CO2 atmosphere. Before transfection, cells were plated onto sterile quartered 35-mm glass-bottomed dishes and grown to 50 to 70% confluence. Cells were then transfected using Lipofectamine 2000 (Invitrogen, HeLa) or PolyJet (SignaGen Laboratories, HEK293T and NIH3T3) and grown an additional 48 hours (HeLa, HEK293T) before imaging. NIH3T3 cells were changed to serum-free DMEM immediately before transfection, medium was changed to complete medium after 6 h. NIH3T3 cells were then serum-starved for 24 hours before imaging. HaloTag labeling was performed 24 h before imaging using synthetic fluorophores (Fluorophore-CA 500 nM, 24 h, 37° C.) in the respective medium. Synthetic fluorophores were kindly provided by Luke Lavis (Janelia Research Campus, JF669-CA, JFX646-CA and JF635) or Kai Johnsson (Max Planck Institute for Medical Research (Germany) and EPFL (Switzerland), NGD-CA). […]

The subject of assay [3] is ERK. The assay is described as follows: Multiplexed biosensor imaging in HEK293T cells: ERK activity (yellow/far-red HaloTag-EKAR). The note with it: HEK293T cells co-expressing yellow/far-red HaloTag-EKAR and red/far-red HaloTag-AKAR; 100 ng/mL hEGF. The protocol: as §1

`O=S(=O)(NCCNC/C=C/c1ccc(Br)cc1)c1cccc2cnccc12` [H89]: in assay [1] (HeLa cells expressing RFP-HaloTag^(NGD) AKARs, H89 added after 8 minutes of Fsk/IBMX stimulation), the “FRET/yellow emission ratio after addition of H89” value is given as “FRET/yellow emission ratio of most biosensors decreased”. Moreover, the “normalized FRET/donor ratio after addition of H89” value in assay [1] (HeLa cells expressing YFP-HaloTag^(JF669) AKARs, after 50 μM Fsk and 100 μM IBMX) is “reversible”. The PKA activity result in assay [2] is on record as “decrease in PKA activity”.

Turning to `CC(C)Cn1c(=O)n(C)c(=O)c2[nH]cnc21` [IBMX, 3-isobutyl-1-methylxanthine], the PKA activity entry in assay [2] was “rapid increase in PKA activity”.

As for `O=C(Nc1ccc2[nH]nc(-c3ccncc3)c2c1)[C@@H]1CCN(CC(=O)N2CCN(c3ccc(-c4ncccn4)cc3)CC2)C1` [SCH772984], the ERK activity entry in assay [3] was “only decreased ERK activity”.
